Columns and labels:
[1] = Plasma concentrations and PK during three subcutaneous administrations in obese cynomolgus monkeys; format: in vivo, Cynomolgus monkey (Macaca fascicularis); settings: subcutaneous doses of 1 mg/kg, male obese Cynomolgus monkeys
Experimental: Specifically, plasma concentrations and pharmacokinetic parameters were analyzed during a treatment of three subsequent subcutaneous administrations of 1 and 3 mg/kg in solution to male obese Cynomolgus monkeys. The exposure to both tested antibodies after subcutaneous doses of 1 mg/kg […] were similar. Moreover, plasma concentrations of both compounds were detected up to the end of sampling (i.e. 336 and 504 hours after the 2nd and the 3rd dose, respectively).

[2] = SAR16 (16H7) standalone and in combination with dulaglutide in DIO NASH cynomolgus monkeys; format: in vivo, Cynomolgus monkey (Macaca fascicularis)
Experimental: Both were tested as single administration and in combination of both in the most relevant animal model that reflects the intended human population. Thus, the pharmacokinetic and pharmacodynamics of varying doses of the compounds were explored in the high-fat diet-induced obese and insulin resistance cynomolgus monkey model with diagnosed non-alcoholic steatohepatitis (NASH), mimicking the adult human NASH insulin resistance phenotype.
Cynomolgus monkey (Macaca fascicularis) was selected as the test species of choice for more meaningful results that were translatable to humans. More than 50 male monkeys were trained to identify 40 HFD induced obese NASH monkeys for the study.
There was a run-in period during which monkeys were injected subcutaneously with vehicle every third day. Food intake (calculated as TEI) and water intake were measured daily along with twice-weekly body weight evaluation and baseline value determination for metabolic biomarkers, safety biomarkers, IV glucose tolerance test (IVGTT), liver biopsy for gene expression analysis, and profile for glucose, insulin, and plasma lipids.
For the dosing period 40 trained monkeys (n=10 per group) were selected and stratified for body weight, fasting plasma glucose (FPG), and fasting plasma insulin (FPI) and insulin response from baseline during the IVGTT. All treatments were administered subcutaneously for […]. The dosing period was designed as a four-arm, dose-ramping study, and monkeys were treated with either vehicle, SAR10, SAR16, or a combination of both SAR10 and SAR16.
(§1) The SAR10-treated monkeys were dosed every 3rd day at 60 μg/kg initiated by dose ramping (3 dose steps, week 1: 20 μg/kg, week 2: 40 μg/kg, week 3 to runout: 60 μg/kg). The SAR16-treated monkeys were dosed at 1 mg/kg on day +1, 3 mg/kg on day +16, and then repeat maintenance dose of 3 mg/kg on day +46. The Combo-treated monkey were dosed with both SAR10 and SAR16 as the same pattern of the SAR10 and SAR16 treated monkeys.
Other parameters were also measured during the study, including food intake, body fat, plasma ketone bodies, as well as blood glucose control (glucose profile, fed, fasting plasma glucose and during ivGTT). One group received the vehicle. The compounds were administered subcutaneously (SC) (12 weeks “evaluation phase” plus run-out) to obese and NASH male cynomolgus macaques (Macaca fascicularis).
as §1, with “at” for “as”

[3] = compared to the vehicle treated group
[4] = day +76 compared to baseline (day −27)

Substance	exposure [1]	body weight (in words) ([2]; DIO NASH cynomolgus monkeys)	food intake ([2]; DIO NASH cynomolgus monkeys)	fasting glucose and fed glucose levels (12:30 and 18:30) [2, 3]	ivGTT glucose AUC [2, 3]	blood glucose levels, plasma profile [2, 4]	insulin, plasma profile [2, 4]	HDL levels, plasma profile ([2]; day +76 versus day −27)	T-ketones levels, plasma profile ([2]; day +76 versus day −27)	TC and LDL levels, plasma profile ([2]; day +76 versus day −27)	TG values, plasma profile ([2]; day +76 versus day −27)	liver fat fraction change (MRI) ([2]; measured on days +81/+82/+83/+84, DIO NASH cynomolgus monkeys) [%]	NASH steatosis score ([2]; more monkeys improved compared to vehicle treated group)
16H7: anti FGFR1c/KLB monoclonal antibody of WO 2011/071783, IgG2 backbone; HC SEQ ID NO: 1, LC SEQ ID NO: 2 [Ab 16H7]	similar	Significant reductions in body weight	Reduction of food intake	No significant change	significantly decreased	appreciable decreases	decreased	slightly increased	increased T-ketones levels	quite stable	lower TG values	−30.0	improved steatosis score
Ab0335: IgG4 PE; 16H7 VL (N25S, D49S, D50A, D91E, N93E); 16H7 VH (M34V, I83T, D109E); HC SEQ ID NO: 39, LC SEQ ID NO: 46	similar	–	–	–	–	–	–	–	–	–	–	–	–

Source: US20250115669A1, “FGFR1/KLB Targeting Agonistic Antigen-Binding Proteins and Conjugates Thereof with GLP-1R Agonistic Peptides” (SANOFI, priority 2020, published 2025)
